# PMC12503909, “C1′‐Branched Acyclic Nucleoside Phosphonates as Inhibitors of Plasmodium Falciparum 6‐Oxopurine Phosphoribosyltransferase” (Chemmedchem, 2025)
# Columns and labels:
# NHDF = assay: Cytotoxicity of the prodrug in human cells (CellTiter-Glo 2.0), NHDF; format: cell-based; conditions: 10 µM, versus untreated control; mean ± SD
# Description: (§1) Compound cytotoxicity was evaluated in nontumor human dermal fibroblasts (NHDF), CCRF‐CEM, HL‐60, HeLa, and HepG2 cells. All cell lines were obtained from ATCC (Manassas, VA, USA). The cytotoxicity was assayed using CellTiter‐Glo 2.0 detection reagent (Promega, Madison, USA) according to the manufacturer's protocol. The concentration of prodrug used in this assay was 10 μM. This concentration was chosen as it would more accurately reflect the expected concentration in an in vitro assessment.
# HeLa = assay: Cytotoxicity of the prodrug in human cells (CellTiter-Glo 2.0), HeLa; format: cell-based; conditions: 10 µM, versus untreated control; mean ± SD
# Description: as §1
# CCRF-CEM = assay: Cytotoxicity of the prodrug in human cells (CellTiter-Glo 2.0), CCRF-CEM; format: cell-based; conditions: 10 µM, versus untreated control; mean ± SD
# Description: as §1
# P. falciparum D6 = assay: In vitro antimalarial activity, 3H-hypoxanthine growth inhibition assay, D6 line; format: cell-based, Plasmodium falciparum; conditions: Plasmodium falciparum, D6, Erythrocyte, 96 h, Pf infected erythrocytes, D6 strain sensitive to chloroquine, mean ± SD of three independent experiments
# Description: (§2) The IC50 values were determined as previously described.^[ [32] ^] P. falciparum D6 (Sierra‐Leone) laboratory line, sensitive to most antimalarial drugs, and W2 (Indochina) line, resistant to chloroquine and pyrimethamine, were maintained as previously described^[ [33] ^] in medium consisted of 10.4 g L^−1 RPMI‐1640‐LPLF powder (Gibco BRL), 5.97 g L^−1 HEPES buffer (MP Biomedicals, USA), 2.0 g L^−1 d‐glucose (BDH chemicals, Australia), 0.05 g L^−1 hypoxanthine (Sigma, USA) and 40 mg L^−1 gentamycin (Pfizer, Australia), supplemented with 0.21% NaHCO3 and 10% human plasma prior to use. Red blood cells O (Rh+) type were obtained from the Australian Red Cross Blood Service and added to 4% haematocrit. Cultures were routinely synchronized using D‐sorbitol.^[ [34] ^] To evaluate the antimalarial activity of the ANPs, the ^3H‐hypoxanthine growth inhibition assay was utilized, where the uptake of ^3H‐hypoxanthine by malaria parasites is used as a surrogate marker for parasite growth. For these assays, stock solutions of the tested compounds were made to concentrations of 20–40 mM in DMSO or water and subsequently diluted in hypoxanthine‐free complete media prior to assay. The assays (in 96‐well plate format) were initiated when most parasites (> 90%) were at the early trophozoite (ring) stage. Parasite cultures (100 μL per well) at 0.5% initial parasitemia and 2% hematocrit in hypoxanthine‐free RPMI1640‐LPLF medium were exposed to ten twofold serial dilutions of the compounds and chloroquine (reference drug) for 96 h, with ^3H‐hypoxanthine (0.2 μCi well^−1) added ≈48 h after the beginning of the experiment.
# (§3) The ^3H‐hypoxanthine incorporation data were analyzed, and sigmoidal growth inhibition curves were produced by nonlinear regression analysis of the ^3H‐hypoxanthine incorporation data versus log‐transformed concentrations of the compounds using Graphpad Prism V5.0 software (GraphPad Software Inc. USA). […] The IC50 values were based on three independent experiments, with mean ± SD calculated.
# HepG2 = assay: Cytotoxicity of the prodrug in human cells (CellTiter-Glo 2.0), HepG2; format: cell-based; conditions: 10 µM, versus untreated control; mean ± SD
# Description: as §1
# P. falciparum W2 = assay: In vitro antimalarial activity, 3H-hypoxanthine growth inhibition assay, W2 line; format: cell-based, Plasmodium falciparum; conditions: Plasmodium falciparum, W2, Erythrocyte, 96 h, Pf infected erythrocytes, W2 strain resistant to chloroquine, mean ± SD of three independent experiments
# Description: as §2, §3
# HL-60 = assay: Cytotoxicity of the prodrug in human cells (CellTiter-Glo 2.0), HL-60; format: cell-based; conditions: 10 µM, versus untreated control; mean ± SD
# Description: as §1
Structure (SMILES),Viability NHDF (NHDF) [% control],Viability HeLa (HeLa) [% control],Viability CCRF-CEM (CCRF-CEM) [% control],IC50 (P. falciparum D6) [µM],Viability HepG2 (HepG2) [% control],IC50 (P. falciparum W2) [µM],Viability HL-60 (HL-60) [% control]
"CCOC(=O)[C@H](Cc1ccccc1)NP(=O)(CCOCC(OCCO)n1cnc2c(=O)[nH]c(N)nc21)N[C@@H](Cc1ccccc1)C(=O)OCC (stereo partly shown) [21d, Bis‐(L‐phenylalaninate ethyl ester) prodrug of (2‐(2‐(guanin‐9‐yl)‐2‐(2‐hydroxyethoxy)ethoxy)ethyl) phosphonic acid]",112 ± 1,100 ± 2,99 ± 4,64 ± 6,107 ± 2,39 ± 5,105 ± 1
"CCOC(=O)[C@H](Cc1ccccc1)NP(=O)(COCCC(OCCCO)n1cnc2c(=O)[nH]cnc21)N[C@@H](Cc1ccccc1)C(=O)OCC (stereo partly shown) [21e, Bis‐(L‐phenylalaninate ethyl ester) prodrug of ((3‐(3‐hydroxypropoxy)‐3‐(hypoxanthin‐9‐yl)propoxy)methyl) phosphonic acid]",110 ± 7,105 ± 1,105 ± 2,14 ± 2,106 ± 3,41 ± 5,110 ± 1
"CCOC(=O)[C@H](Cc1ccccc1)NP(=O)(COCCC(OCCCO)n1cnc2c(=O)[nH]c(N)nc21)N[C@@H](Cc1ccccc1)C(=O)OCC (stereo partly shown) [21f, Bis‐(L‐phenylalaninate ethyl ester) prodrug of ((3‐(3‐hydroxypropoxy)‐3‐(guanin‐9‐yl)propoxy)methyl) phosphonic acid]",116 ± 4,106 ± 1,103 ± 1,13 ± 2,110 ± 2,26 ± 14,105 ± 2
"CCOC(=O)[C@H](Cc1ccccc1)NP(=O)(COCCC(OCCCO)n1ncc2c(=O)[nH]cnc21)N[C@@H](Cc1ccccc1)C(=O)OCC (stereo partly shown) [21g, Bis‐(L‐phenylalaninateethyl ester) prodrug of ((3‐(3‐hydroxypropoxy)‐3‐(4‐oxo‐4,5‐dihydro‐1H‐pyrazolo[3,4‐d]pyrimidin‐1‐yl)propoxy)methyl) phosphonic acid]",114 ± 3,106 ± 2,105 ± 2,11 ± 1,111 ± 6,15 ± 2,107 ± 2
